# How the values were obtained:
# [1] = Water-solubility / water-dispersing ability (FIG. 1); format: physicochemical; settings: FIG. 1, dispersed in water, bottle A vs bottle B
# [2] = cited from earlier work
substance,measurement,setting,value
Cannabidiol [CBD],water-dispersing ability,[1],insoluble in water
same,half-life,[2]; in vivo,about 9 hours
same,bioavailability when being used nasally (inhalantly),[2]; nasal (inhalation),about 31%
same,bioavailability when being used orally,[2]; oral,13-19%
